According to patent publication US20240158446A1, “CYCLIC COMPOUND HAVING SELECTIVE INHIBITORY ACTION ON KRAS OVER HRAS AND NRAS” (CHUGAI SEIYAKU KABUSHIKI KAISHA, priority 2021, published 2024):
Like-named read-outs stand apart in the source and are kept apart here.

Tests used:
[1] = target: GDP-bound KRAS wild-type protein (Homo sapiens, UniProt P01116); assay: Binding to KRAS by surface plasmon resonance (SPR), Single Cycle Kinetics; conditions: GDP-bound KRAS wild-type protein, read-out: KRAS KD
[2] = system: human lung cancer strain NCI-H441;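 also: cell proliferation inhibition after four days measured by CellTiter-Glo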
[3] = target: GDP-bound HRAS wild-type protein (Homo sapiens, UniProt P01112); assay: Binding to HRAS by surface plasmon resonance (SPR), Single Cycle Kinetics; conditions: for HRAS/KRAS (ratio of KD value for HRAS to KD value for KRAS): GDP-bound HRAS wild-type protein vs GDP-bound KRAS wild-type protein; for HRAS/KRAS (ratio of KD value with respect to GDP-bound HRAS wild-type protein to KD value with respect to KRAS): SPR KD ratio HRAS/KRAS, class symbols
[4] = target: GDP-bound NRAS wild-type protein (Homo sapiens, UniProt P01111); assay: Binding to NRAS by surface plasmon resonance (SPR), Single Cycle Kinetics; conditions: for NRAS/KRAS (ratio of KD value for NRAS to KD value for KRAS): GDP-bound NRAS wild-type protein vs GDP-bound KRAS wild-type protein; for NRAS/KRAS (ratio of KD value with respect to GDP-bound NRAS wild-type protein to KD value with respect to KRAS): SPR KD ratio NRAS/KRAS, class symbols
[5] = SPR Single Cycle Kinetics, 1:1 binding model
[6] = SPR, Single Cycle Kinetics, 1:1 binding model

GDP-bound NRAS wild-type protein, sequence (P01111 whole entry): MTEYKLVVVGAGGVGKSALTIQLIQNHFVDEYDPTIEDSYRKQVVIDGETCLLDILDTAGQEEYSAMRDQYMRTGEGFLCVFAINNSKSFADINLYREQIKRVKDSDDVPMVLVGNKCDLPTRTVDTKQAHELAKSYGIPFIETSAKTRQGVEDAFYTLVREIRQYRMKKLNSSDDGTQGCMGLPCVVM
GDP-bound HRAS wild-type protein, sequence (P01112 whole entry): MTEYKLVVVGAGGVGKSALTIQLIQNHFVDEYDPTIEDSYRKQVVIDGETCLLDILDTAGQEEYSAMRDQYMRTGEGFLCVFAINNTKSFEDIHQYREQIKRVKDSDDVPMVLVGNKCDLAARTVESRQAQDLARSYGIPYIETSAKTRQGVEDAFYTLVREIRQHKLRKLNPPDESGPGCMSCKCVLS
GDP-bound KRAS wild-type protein, sequence (P01116 whole entry): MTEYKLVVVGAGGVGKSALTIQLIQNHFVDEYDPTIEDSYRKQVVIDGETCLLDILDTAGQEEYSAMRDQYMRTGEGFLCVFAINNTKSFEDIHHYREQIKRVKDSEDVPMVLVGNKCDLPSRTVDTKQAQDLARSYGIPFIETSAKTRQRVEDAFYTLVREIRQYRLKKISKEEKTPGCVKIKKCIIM

Kd ([1]; SPR, Single Cycle Kinetics) [nM] | IC50 [2] [nM] | Kd [1, 6] [nM] | SMILES | HRAS/KRAS (ratio of KD value for HRAS to KD value for KRAS) ([3]; SPR) | NRAS/KRAS (ratio of KD value for NRAS to KD value for KRAS) ([4]; SPR) | HRAS/KRAS (ratio of KD value for HRAS to KD value for KRAS) ([3]; SPR, KD ratio class) | NRAS/KRAS (ratio of KD value for NRAS to KD value for KRAS) ([4]; SPR, KD ratio class) | other results
1.8 | 118 |  | CCOC[C@H]1C(=O)N[C@@H]([C@@H](C)CC)C(=O)N(C)CC(=O)N(C)[C@H]2C/C=C\CCN(C2=O)[C@@H](CC2CCCCC2)C(=O)N(C)CC(=O)N[C@@H](CCc2ccc(C(F)(F)F)c(OC)c2)C(=O)N2C[C@H](OCC)C[C@H]2C(=O)NC2(CC(C)(C)C2)C(=O)N(C)[C@@H](C(CC)CC)C(=O)N(C)[C@H](C(=O)N(C)C)CC(=O)N1C [PP2470] | A (a compound having 10 or more and less than 20 is denoted as A) | A (a compound having 10 or more and less than 20 is denoted as A) |  |  | 
 | 50.2 |  | CCO[C@@H]1C[C@H]2C(=O)NC3(CC(C)(C)C3)C(=O)N(C)[C@@H](C(CC)CC)C(=O)N(C)[C@H](C(=O)N(C)C)CC(=O)N(C)[C@@H](COC)C(=O)N[C@@H]([C@@H](C)CC)C(=O)N3CCC[C@H]3C(=O)N(C)[C@H]3C/C=C\CCN(C3=O)[C@@H](Cc3ccc(C(F)(F)F)cc3)C(=O)N(C)CC(=O)N[C@@H](CCc3ccc(Cl)c(Cl)c3)C(=O)N2C1 [PP2635] |  |  |  |  | Kd [1, 5]: 0.97 nM; HRAS/KRAS (ratio of KD value with respect to GDP-bound HRAS wild-type protein to KD value with respect to KRAS) [3]: A (a compound having 10 or more and less than 20 is denoted as A); NRAS/KRAS (ratio of KD value with respect to GDP-bound NRAS wild-type protein to KD value with respect to KRAS) [4]: AA (a compound having 20 or more is denoted as AA)
0.14 | 193 |  | CC[C@H](C)[C@@H]1NC(=O)[C@H](CC)N(C)C(=O)C[C@@H](C(=O)N(C)C)N(C)C(=O)[C@H](C2CCCC2)N(C)C(=O)C2(CCC2)NC(=O)[C@@H]2CCCCN2C(=O)[C@H](CCc2cc(F)c(C(F)(F)F)c(F)c2)NC(=O)CN(C)C(=O)[C@H](Cc2ccc(C(F)(F)F)cc2)N2CC/C=C\C[C@@H](C2=O)N(C)C(=O)CN(C)C1=O [PP1136, (2S,8S,15S,21S,24S,28S,31S,37S,39Z)-21-cyclopentyl-8-[2-[3,5-difluoro-4-(trifluoromethyl)phenyl]ethyl]-28-ethyl-N,N,4,20,23,27,33,36-octamethyl-31-[(1S)-1-methylpropyl]-3,6,9,16,19,22,26,29,32,35,43-undecaoxo-2-[[4-(trifluoromethyl)phenyl]methyl]spiro[1,4,7,10,17,20,23,27,30,33,36-undecazatricyclo[35.5.1.0^10,1^5]tritetracont-39-ene-18,1′-cyclobutane]-24-carboxamide] | A (a compound having 10 or more and less than 20 is denoted as A) | A (a compound having 10 or more and less than 20 is denoted as A) |  |  | 
 | 156 | 0.39 | CCO[C@@H]1C[C@H]2C(=O)NC3(CCC3)C(=O)N(C)[C@@H](C3CCCC3)C(=O)N(C)[C@H](C(=O)N(C)C)CC(=O)N(C)[C@@H](CC)C(=O)N[C@@H]([C@@H](C)CC)C(=O)N(C)CC(=O)N(C)[C@H]3C/C=C\CCN(C3=O)[C@@H](Cc3ccc(C(F)(F)F)cc3)C(=O)N(C)CC(=O)N[C@@H](CCc3ccc4sccc4c3)C(=O)N2C1 [PP1255] |  |  | A (a compound having 10 or more and less than 20 is denoted as A) | A (a compound having 10 or more and less than 20 is denoted as A) | 
0.12 | 7.8 |  | CC[C@H](C)[C@@H]1NC(=O)[C@H](COC)N(C)C(=O)C[C@@H](C(=O)N(C)C)N(C)C(=O)[C@H](C2CCCC2)N(C)C(=O)C2(CC(C)(C)C2)NC(=O)[C@@H]2C[C@H](C)CN2C(=O)[C@H](CCc2ccc(C(F)(F)F)c(OC)c2)NC(=O)CN(C)C(=O)[C@H](Cc2ccc(C)cc2)N2CC/C=C\C[C@@H](C2=O)N(C)C(=O)CN(C)C1=O [PP2385] | B (a compound having 3 or more and less than 10 is denoted as B) | A (a compound having 10 or more and less than 20 is denoted as A) |  |  | 
1.6 | 126 |  | CCCO[C@H](C)[C@@H]1NC(=O)[C@H](COCC)N(C)C(=O)C[C@@H](C(=O)N(C)CC)N(C)C(=O)[C@H](C2CCCC2)N(C)C(=O)C2(CC(C)(C)C2)NC(=O)[C@@H]2C[C@@H](OCC)CN2C(=O)[C@H](CCc2cc(F)c(C(F)(F)F)c(F)c2)NC(=O)CN(C)C(=O)[C@H](Cc2ccc(C)cc2)N2CC/C=C\C[C@@H](C2=O)N(C)C(=O)[C@@H]2CCCN2C1=O [PP2436] | A (a compound having 10 or more and less than 20 is denoted as A) | A (a compound having 10 or more and less than 20 is denoted as A) |  |  | 
0.033 | 2.3 |  | CCO[C@@H]1C[C@H]2C(=O)NC3(CC(C)(C)C3)C(=O)N(C)[C@@H](C3CCCC3)C(=O)N(C)[C@H](C(=O)N(C)CC)CC(=O)N(C)[C@H]3CCCC/C=C/c4ccc(cc4)C[C@@H](C(=O)N(C)CC(=O)N[C@@H](CCc4cc(F)c(C(F)(F)F)c(F)c4)C(=O)N2C1)N1CC/C=C\C[C@@H](C1=O)N(C)C(=O)CN(C)C(=O)[C@H]([C@@H](C)CC)NC3=O [PP1829] |  |  |  |  | HRAS/KRAS (KD ratio) ([3]; ratio of KD for GDP-bound HRAS wild-type protein to KD for KRAS, SPR): B (a compound having 3 or more and less than 10 is denoted as B); NRAS/KRAS (KD ratio) ([4]; ratio of KD for GDP-bound NRAS wild-type protein to KD for KRAS, SPR): A (a compound having 10 or more and less than 20 is denoted as A)
 | 48.2 | 0.23 | CCO[C@@H]1C[C@H]2C(=O)NC3(CCC3)C(=O)N(C)[C@@H](C3CCCC3)C(=O)N(C)[C@H](C(=O)N(C)C)CC(=O)N(C)[C@@H](CC(C)(C)C)C(=O)N[C@@H]([C@@H](C)CC)C(=O)N(C)CC(=O)N(C)[C@H]3C/C=C\CCN(C3=O)[C@@H](CC3CCCCC3)C(=O)N(C)CC(=O)N[C@@H](CCc3cc(F)c(C(F)(F)F)c(F)c3)C(=O)N2C1 [PP1474] |  |  | A (a compound having 10 or more and less than 20 is denoted as A) | A (a compound having 10 or more and less than 20 is denoted as A) | 
 | 14.7 | 0.12 | CCO[C@@H]1C[C@H]2C(=O)NC3(CCC3)C(=O)N(C)[C@@H](C3CCCC3)C(=O)N(C)[C@H](C(=O)N3CCCC3)CC(=O)N(C)[C@@H](CC3CC3)C(=O)N[C@@H]([C@@H](C)CC)C(=O)N(C)CC(=O)N(C)[C@H]3C/C=C\CCN(C3=O)[C@@H](Cc3ccc(C(F)(F)F)cc3)C(=O)N(C)CC(=O)N[C@@H](CCc3cc(F)c(C(F)(F)F)c(F)c3)C(=O)N2C1 [PP1296] |  |  | A (a compound having 10 or more and less than 20 is denoted as A) | AA (a compound having 20 or more is denoted as AA) | 
 | 85.8 | 0.92 | CCO[C@@H]1C[C@H]2C(=O)NC3(CCC3)C(=O)N(C)[C@@H](C3CCCC3)C(=O)N(C)[C@H](C(=O)N(C)C)CC(=O)N(C)[C@@H](CC(C)C)C(=O)N[C@@H]([C@@H](C)CC)C(=O)N(C)CC(=O)N(C)[C@H]3C/C=C\CCN(C3=O)[C@@H](Cc3ccc(F)cc3C)C(=O)N(C)CC(=O)N[C@@H](CCc3ccc(Cl)c(Cl)c3)C(=O)N2C1 [PP1480] |  |  | B (a compound having 3 or more and less than 10 is denoted as B) | A (a compound having 10 or more and less than 20 is denoted as A) | 
0.076 | 4.8 |  | CCC[C@H]1C(=O)N[C@@H]([C@@H](C)CC)C(=O)N2CCC[C@H]2C(=O)N(C)[C@H]2C/C=C\CCN(C2=O)[C@@H](Cc2ccc(C(F)(F)F)cc2)C(=O)N(C)CC(=O)N[C@@H](CCc2ccc(C(F)(F)F)c(OC)c2)C(=O)N2C[C@@H](C)C[C@H]2C(=O)N(C)C2(CCC2)C(=O)N(C)[C@@H](C2CCCC2)C(=O)N(C)[C@H](C(=O)N(C)C)CC(=O)N1C [PP2362] | A (a compound having 10 or more and less than 20 is denoted as A) | A (a compound having 10 or more and less than 20 is denoted as A) |  |  | 
0.43 | 297 |  | CC[C@H](C)[C@@H]1NC(=O)[C@H](CC)N(C)C(=O)C[C@@H](C(=O)N(C)C)N(C)C(=O)[C@H](C2CCCC2)N(C)C(=O)C2(CCC2)NC(=O)[C@@H]2CCN2C(=O)[C@H](CCc2cc(F)c(C(F)(F)F)c(F)c2)NC(=O)CN(C)C(=O)[C@H](Cc2ccc(C(F)(F)F)cc2)N2CC/C=C\C[C@@H](C2=O)N(C)C(=O)CN(C)C1=O [PP1139] | A (a compound having 10 or more and less than 20 is denoted as A) | A (a compound having 10 or more and less than 20 is denoted as A) |  |  | 
 | 7.1 |  | CCO[C@@H]1C[C@H]2C(=O)NC3(CC(C)(C)C3)C(=O)N(C)[C@@H](CC(C)(C)C)C(=O)N(C)[C@H](C(=O)N(C)C)CC(=O)N(C)[C@@H](COC)C(=O)N[C@@H]([C@@H](C)CC)C(=O)N(C3CC3)CC(=O)N(C)[C@H]3C/C=C\CCN(C3=O)[C@@H](Cc3ccc(C(F)(F)F)cc3)C(=O)N(C)CC(=O)N[C@@H](CCc3ccc(C(F)(F)F)c(OC)c3)C(=O)N2C1 [PP2748] |  |  |  |  | Kd [1, 5]: 0.2 nM; HRAS/KRAS (ratio of KD value with respect to GDP-bound HRAS wild-type protein to KD value with respect to KRAS) [3]: A (a compound having 10 or more and less than 20 is denoted as A); NRAS/KRAS (ratio of KD value with respect to GDP-bound NRAS wild-type protein to KD value with respect to KRAS) [4]: A (a compound having 10 or more and less than 20 is denoted as A)
